One molecule from patent US20230096085A1 (priority 2020, published 2023) can be followed below.

Read-outs that look alike come from different tables or passages of the source.

For this test, the system named is rice blast fungus. Type of test: cell-based. The note with it: for Preventive value: 1,000 μl on oatmeal culture medium, 25° C. for 7 days, elongation length of hyphae vs without treatment.

For the molecule `COc1nc(-c2ccc3cnccc3n2)nc(F)c1C(F)(F)F` [Example 4, 6-fluoro-4-methoxy-2-(2-(1,6-naphthyridyl))-5-trifluoromethylpyrimidine], the “control activity against rice blast fungus” value (conclusion from the results in Table 1) is reported as “has a control activity against rice blast fungus”. The Preventive value reads like this: (test solution concentration 1000 ppm) 76; (test solution concentration 2000 ppm) 100.
